Among the data in US20210380595A1 (ARAXES PHARMA LLC, priority 2018, published 2021) are Bind % values, retold here.

The first experiment deals with T1, KRAS G12C 1-169, his-tagged protein, GDP-loaded (Homo sapiens, UniProt P01116, G12C).
T1 construct: KRAS G12C 1-169, his-tagged protein, GDP-loaded
Briefly: Biochemical assay: covalent modification of KRAS G12C measured by mass spectrometry (RapidFire/TOF or Q-Exactive). Also: time not given here. The experiment is classed as binding. Conditions: tested at 32 μM. An outline of the steps:
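GDP-loaded KRAS G12C 1-169 (his-tagged, 2 μM or 0.5 μM in 20 mM Hepes, 150 mM NaCl, 1 mM MgCl2) reacted with compound at 32 μM or 8 μM final, then quenched with formic acid. Intact-protein LC-MS (RapidFire/TOF or Q-Exactive) with charge-envelope deconvolution; % modification from modified vs unmodified peak intensities.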
For the compound `C=CC(=O)N1CC2(CCN(c3cc(OCc4ccccn4)c(Cl)c(-c4c(C)ccc5[nH]ncc45)c3C#N)CC2)C1` [Compound I-122, 6-(2-acryloyl-2,7-diazaspiro[3.5]nonan-7-yl)-3-chloro-2-(5-methyl-1H-indazol-4-yl)-4-(pyridin-2-ylmethoxy) benzonitrile], the Bind % entry was “++ (++ indicates binding activity from 50 to 75%)”.

`C=CC(=O)N1CC2(CCN(c3cc(N4CC(N5CCOCC5)C4)c(F)c(-c4c(C)ccc5[nH]ncc45)c3C#N)CC2)C1` [Compound I-123, 6-(2-acryloyl-2,7-diazaspiro[3.5]nonan-7-yl)-3-fluoro-2-(5-methyl-1H-indazol-4-yl)-4-(3-morpholino-azetidin-1-yl)benzonitrile]: the Bind % result was “+ (+ indicates binding activity greater than 0% and up to 50%)”.

As to `C=CC(=O)N1CC2(CCN(c3cc(N4CCOCC4)c(Cl)c(-c4c(C)ccc5[nH]ncc45)c3C#N)CC2)C1` [Compound I-124, 6-(2-acryloyl-2,7-diazaspiro[3.5]nonan-7-yl)-3-chloro-2-(5-methyl-1H-indazol-4-yl)-4-morpholino-benzonitrile], the Bind % result is “+ (+ indicates binding activity greater than 0% and up to 50%)”.

On to `C=CC(=O)N1CC2(CCN(c3cc(OCCCN(C)C)c(Cl)c(-c4c(C)ccc5[nH]ncc45)c3C#N)CC2)C1` [Compound I-125, 6-(2-acryloyl-2,7-diazaspiro[3.5]nonan-7-yl)-3-chloro-4-(3-(dimethylamino)propoxy)-2-(5-methyl-1H-indazol-4-yl)benzonitrile], for which the Bind % result was “++ (++ indicates binding activity from 50 to 75%)”.

Turning to `C=CC(=O)N1CC2(CCN(c3cc(OC[C@H]4CCCN4C)c(F)c(-c4c(C)ccc5[nH]ncc45)c3C#N)CC2)C1` [Compound I-127, 6-(2-acryloyl-2,7-diazaspiro[3.5]nonan-7-yl)-3-fluoro-2-(5-methyl-1H-indazol-4-yl)-4-(((R)-1-methylpyrrolidin-2-yl)methoxy) benzonitrile], the Bind % result is recorded as “++ (++ indicates binding activity from 50 to 75%)”.

As to `C=CC(=O)N1CC2(CCN(c3cc(OC[C@@H]4CCCN4C)c(F)c(-c4c(C)ccc5[nH]ncc45)c3C#N)CC2)C1` [Compound I-128, 6-(2-acryloyl-2,7-diazaspiro[3.5]nonan-7-yl)-3-fluoro-2-(5-methyl-1H-indazol-4-yl)-4-(((S)-1-methylpyrrolidin-2-yl)methoxy) benzonitrile], the Bind % result was “+ (+ indicates binding activity greater than 0% and up to 50%)”.

Regarding `C=CC(=O)N1CC2(CCN(c3ccc(OCC(F)(F)F)c(-c4c(C)ccc5[nH]ncc45)c3C#N)CC2)C1` [Compound I-130, 6-(2-acryloyl-2,7-diazaspiro[3.5]nonan-7-yl)-2-(5-methyl-1H-indazol-4-yl)-3-(2,2,2-trifluoroethoxy) benzonitrile], the Bind % entry was “+ (+ indicates binding activity greater than 0% and up to 50%)”.

On to `C=CC(=O)N1CC2(CCN(c3cc(N(C)CCN4CCCC4)c(F)c(-c4c(C)ccc5[nH]ncc45)c3C#N)CC2)C1` [Compound I-131, 6-(2-acryloyl-2,7-diazaspiro[3.5]nonan-7-yl)-3-fluoro-4-(methyl(2-(pyrrolidin-1-yl)ethyl)amino)-2-(5-methyl-1H-indazol-4-yl)benzonitrile], for which the Bind % result was “+ (+ indicates binding activity greater than 0% and up to 50%)”.

As to `C=CC(=O)N1CC2(CCN(c3cc(OC)c(Cl)c(-c4c(C)ccc5[nH]ncc45)c3C#N)CC2)C1` [Compound I-132, 6-(2-acryloyl-2,7-diazaspiro[3.5]nonan-7-yl)-3-chloro-4-methoxy-2-(5-methyl-1H-indazol-4-yl)benzonitrile], the Bind % result is “+ (+ indicates binding activity greater than 0% and up to 50%)”.

Turning to `C=CC(=O)N1CC2(CCN(c3cc(NCCc4ccccn4)c(F)c(-c4c(C)ccc5[nH]ncc45)c3C#N)CC2)C1` [Compound I-133, 6-(2-acryloyl-2,7-diazaspiro[3.5]nonan-7-yl)-3-fluoro-2-(5-methyl-1H-indazol-4-yl)-4-((2-(pyridin-2-yl)ethyl)amino) benzonitrile], the Bind % entry is “+ (+ indicates binding activity greater than 0% and up to 50%)”.

On to `C=CC(=O)N1CC2(CCN(c3cc(OCCN4CCCC4)c(F)c(-c4c(C)ccc5[nH]ncc45)c3C#N)CC2)C1` [Compound I-135, 6-(2-acryloyl-2,7-diazaspiro[3.5]nonan-7-yl)-3-fluoro-2-(5-methyl-1H-indazol-4-yl)-4-(2-(pyrrolidin-1-yl)ethoxy) benzonitrile], for which the Bind % entry is “+ (+ indicates binding activity greater than 0% and up to 50%)”.

For the compound `C=CC(=O)N1CC2(CCN(c3cccc(-c4c(C)ccc5[nH]ncc45)c3C#N)C2)C1CC` (stereo not drawn) [Compound I-137, 2-(2-acryloyl-1-ethyl-2,6-diazaspiro[3.4]octan-6-yl)-6-(5-methyl-1H-indazol-4-yl)benzonitrile], the Bind % result was “+ (+ indicates binding activity greater than 0% and up to 50%)”.

Consider `C=CC(=O)N1CC2(CCN(c3cc(OCc4ccccn4)cc(-c4c(C)ccc5[nH]ncc45)c3C#N)C2)C1CC` (stereo not drawn) [Compound I-138], for which the Bind % entry is listed as “++ (++ indicates binding activity from 50 to 75%)”.

As to `C=CC(=O)N1CC2(CCN(c3cccc(-c4c(C)ccc5[nH]ncc45)c3C#N)C2)C1C(C)C` (stereo not drawn) [Compound I-139, 2-(2-acryloyl-1-isopropyl-2,6-diazaspiro[3.4]octan-6-yl)-6-(5-methyl-1H-indazol-4-yl)benzonitrile], the Bind % entry was “+ (+ indicates binding activity greater than 0% and up to 50%)”.

Staying with this experiment, now noted: tested at a concentration of 8 μM.
Turning to `C=CC(=O)N1CC2(CCN(c3cccc(-c4c(C)ccc5[nH]ncc45)c3C#N)C2)C1C` (stereo not drawn) [Compound I-126, 2-(2-acryloyl-1-methyl-2,6-diazaspiro[3.4]octan-6-yl)-6-(5-methyl-1H-indazol-4-yl)benzonitrile], the Bind % result was “+ (+ indicates binding activity greater than 0% and up to 50%)”.

For `C=CC(=O)N1CC2(CCN(c3cc(OCc4ccccn4)cc(-c4c(C)ccc5[nH]ncc45)c3C#N)C2)C1C` (stereo not drawn) [Compound I-129, 2-(2-acryloyl-1-methyl-2,6-diazaspiro[3.4]octan-6-yl)-6-(5-methyl-1H-indazol-4-yl)-4-(pyridin-2-ylmethoxy) benzonitrile], the Bind % entry is recorded as “++ (++ indicates binding activity from 50 to 75%)”.

For the compound `C=CC(=O)N1CC2(CCN(c3ccc(F)c(-c4c(C)ccc5[nH]ncc45)c3C#N)C2)C1C` (stereo not drawn) [Compound I-134, 6-(2-acryloyl-1-methyl-2,6-diazaspiro[3.4]octan-6-yl)-3-fluoro-2-(5-methyl-1H-indazol-4-yl)benzonitrile], the Bind % result is listed as “++ (++ indicates binding activity from 50 to 75%)”.

For `C=CC(=O)N1CC2(CCN(c3cc(N4CCC(CN(C)C)CC4)c(F)c(-c4c(C)ccc5[nH]ncc45)c3C#N)CC2)C1` [Compound I-136, 6-(2-acryloyl-2,7-diazaspiro[3.5]nonan-7-yl)-4-(4-((dimethylamino)methyl)piperidin-1-yl)-3-fluoro-2-(5-methyl-1H-indazol-4-yl)benzonitrile], the Bind % result was “+ (+ indicates binding activity greater than 0% and up to 50%)”.
